According to the NIST ThermoML archive (doi:10.1021/je025649t):

Key:
[1] = excess molar enthalpy (molar enthalpy of mixing); xn = mol fraction of the nth substance listed; details: 298.15 K, 101 kPa, Liquid, Flow calorimetry
[2] = refractive index (Na D-line) (dimensionless); xn = mol fraction of the nth substance listed; details: 298.15 K, 101 kPa, Liquid, refractometer
[3] = heat capacity at constant pressure per volume; xn = mol fraction of the nth substance listed; details: 298.15 K, 101 kPa, Liquid, Flow calorimetry
[4] = xn = mol fraction of the nth substance listed; details: 298.15 K, 101 kPa, Liquid, Vibrating tube method

CCCCCC(C)=O [2-heptanone] + C1CCOCC1
Details	excess molar enthalpy [kcal/mol]	heat capacity [J/K/m3]	mass density [kg/m3]	refractive index
[1], x2 = 0.1	0.00354	–	–	–
[1], x2 = 0.15	0.0053	–	–	–
[1], x2 = 0.2	0.00696	–	–	–
[1], x2 = 0.25	0.0082	–	–	–
[1], x2 = 0.3	0.00946	–	–	–
[1], x2 = 0.35	0.0106	–	–	–
[1], x2 = 0.4	0.0118	–	–	–
[1], x2 = 0.45	0.0129	–	–	–
[1], x2 = 0.5	0.0138	–	–	–
[1], x2 = 0.55	0.0144	–	–	–
[1], x2 = 0.6	0.0147	–	–	–
[1], x2 = 0.65	0.0146	–	–	–
[1], x2 = 0.7	0.0142	–	–	–
[1], x2 = 0.75	0.0134	–	–	–
[1], x2 = 0.8	0.012	–	–	–
[1], x2 = 0.85	0.0103	–	–	–
[1], x2 = 0.9	0.00793	–	–	–
[2], x2 = 0.0855	–	–	–	1.4075
[2], x2 = 0.1588	–	–	–	1.4081
[2], x2 = 0.2375	–	–	–	1.40879
[2], x2 = 0.3113	–	–	–	1.40947
[2], x2 = 0.3532	–	–	–	1.40988
[2], x2 = 0.3936	–	–	–	1.41029
[2], x2 = 0.4287	–	–	–	1.41065
[2], x2 = 0.4658	–	–	–	1.41105
[2], x2 = 0.5486	–	–	–	1.41198
[2], x2 = 0.5896	–	–	–	1.41246
[2], x2 = 0.6261	–	–	–	1.41291
[2], x2 = 0.6665	–	–	–	1.41343
[2], x2 = 0.7046	–	–	–	1.41393
[2], x2 = 0.7855	–	–	–	1.41507
[2], x2 = 0.8677	–	–	–	1.41633
[2], x2 = 0.9473	–	–	–	1.41768
[3], x2 = 0.0687	–	1711900	–	–
[3], x2 = 0.1469	–	1699600	–	–
[3], x2 = 0.2226	–	1687400	–	–
[3], x2 = 0.3113	–	1672200	–	–
[3], x2 = 0.3855	–	1659100	–	–
[3], x2 = 0.4613	–	1645000	–	–
[3], x2 = 0.5449	–	1628000	–	–
[3], x2 = 0.6288	–	1610700	–	–
[3], x2 = 0.7034	–	1594700	–	–
[3], x2 = 0.7801	–	1576700	–	–
[3], x2 = 0.8581	–	1558500	–	–
[3], x2 = 0.9388	–	1538500	–	–
[4], x2 = 0.0796	–	–	814.73	–
[4], x2 = 0.1679	–	–	819.18	–
[4], x2 = 0.2235	–	–	822.12	–
[4], x2 = 0.3185	–	–	827.4	–
[4], x2 = 0.3518	–	–	829.33	–
[4], x2 = 0.4045	–	–	832.49	–
[4], x2 = 0.4377	–	–	834.53	–
[4], x2 = 0.4617	–	–	836.04	–
[4], x2 = 0.5166	–	–	839.61	–
[4], x2 = 0.5455	–	–	841.54	–
[4], x2 = 0.5907	–	–	844.65	–
[4], x2 = 0.6312	–	–	847.53	–
[4], x2 = 0.6667	–	–	850.14	–
[4], x2 = 0.7077	–	–	853.23	–
[4], x2 = 0.7101	–	–	853.42	–
[4], x2 = 0.7907	–	–	859.84	–
[4], x2 = 0.8696	–	–	866.59	–
[4], x2 = 0.9539	–	–	874.37	–

O=C1CCCCC1 [cyclohexanone] + C1CCOCC1
[1]
Details	excess molar enthalpy [kcal/mol]
x2 = 0.1	0.00647
x2 = 0.15	0.00919
x2 = 0.2	0.0117
x2 = 0.25	0.0139
x2 = 0.3	0.016
x2 = 0.35	0.0176
x2 = 0.4	0.0189
x2 = 0.45	0.0198
x2 = 0.5	0.0207
x2 = 0.55	0.0214
x2 = 0.6	0.0215
x2 = 0.65	0.0209
x2 = 0.7	0.0199
x2 = 0.75	0.0184
x2 = 0.8	0.0164
x2 = 0.85	0.0137
x2 = 0.9	0.01
